From article PMC11674800, “Second-Generation Antipsychotics Induce Metabolic Disruption in Adipose Tissue-Derived Mesenchymal Stem Cells Through an aPKC-Dependent Pathway” (Cells, 2024)
Values belong to the compound of their own block, whether it stands above or below them. Numbered stars: 1 amine (or outer) side, 2 acyl side, 3 side chain; on linkers, the order of the positions; unused ones are H or OH. Bridge positions count the residues as written; N and C are the ends. Square brackets hold non-standard residues; d marks the D form. Peptide text beside a SMILES is read from it. X1 = CC(=O)NC(C(=O)OC(C(C)C)C(N[*:1])C(=O)[*:2])C(O)C(C)C; PhLac = O=C(O)[CH](O)Cc1ccccc1; NMeT = CN[CH](C(=O)O)[CH](C)O; NMeA = CN[CH](C)C(=O)O; NMeDha = C=C(NC)C(=O)O

Assays:
ADSCs [1] = experiment: Acidic vesicle quantification (Lysotracker); format: cell-based, human; settings: for effect of co-treatment on acidic vesicle accumulation in olanzapine-treated cells / reduction of olanzapine-induced accumulation of acidic vesicles: olanzapine 5 μM; for reduction of olanzapine-induced accumulation of acidic vesicles: plus inhibitor 10 μM; for effect of co-treatment on acidic vesicle accumulation in clozapine-treated cells: clozapine 5 µM
Protocol: After treatment, the medium was removed, and the cells were stained with 50 nM Lysotracker Deep Red (Invitrogen, Waltham, MA, USA) and 5 μg/mL Hoechst 33342 (Sigma). Staining was conducted in the dark at 37 °C for 30 min. Fluorescence signals were captured using a FLoid Cell Imaging Station (Life Technology, Carlsbad, CA, USA). The ratio of Lysotracker red signal to blue nuclear signal was quantified using ImageJ software. For acidic vesicle rescue experiments, ADSCs were plated at a concentration of 10,000 cells per well in 48-well plates.

PKCζ = experiment: PKC activation (Western blot, P-PKCζ T560 immunofluorescence); format: cell-based, human; settings: 16 h
Protocol: (§1) After treatments, whole-cell lysates were prepared using RIPA lysis buffer supplemented with protease inhibitors (AEBSF, aprotinin, bestatin, E-64, EDTA, leupeptin, Sigma-Aldrich, Saint Louis, MO, USA) and orthovanadate (Sigma-Aldrich, Saint Louis, MO, USA). The proteins in the lysates were collected and quantified using the Pierce BCA protein assay kit (Thermo Fisher Scientific, Waltham, MA, USA). Subsequently, the proteins were denatured by heating at 95 °C for 5 min in the presence of 2% Sodium Dodecyl Sulfate (SDS, Sigma-Aldrich, Saint Louis, MO, USA), 150 mM dithiothreitol (DTT, Sigma-Aldrich, Saint Louis, MO, USA), and 0.01% bromophenol blue (Sigma-Aldrich, Saint Louis, MO, USA). The samples were then analyzed using SDS-PAGE (SDS-Polyacrylamide Gel Electrophoresis) and Western blotting (WB).
(§2) For INSRβ endocytosis experiments, the cells were stimulated with 50 ng/mL insulin for 15 min. For transferrin endocytosis experiments, the cells were incubated with 25 μg/mL Transferrin Texas Red for 5 min. After treatment, the cells were washed with PBS and fixed with 4% PFA for 10 min at room temperature, followed by an additional PBS wash. The cells were then permeabilized by incubating them with cold HEPES-Triton X-100 buffer for 5 min at 4 °C. After permeabilization, the cells were incubated with primary antibodies for 30 min, followed by incubation with Alexa Fluor 488- or 546-conjugated secondary antibodies (Invitrogen, Waltham, MA, USA) and phalloidin, labeled with either Alexa Fluor 546 or 633 (Invitrogen Waltham, MA, USA) for 30 min. After incubation, coverslips were mounted on glass slides using a mounting medium. Images were acquired using a confocal microscope (Leica TCS SP8, Wetzlar, Germany) and analyzed using ImageJ (v 1.52a) software in order to quantify and analyze the fluorescence signals.

3T3L1 cells = experiment: PA accumulation in cells transfected with DOCK2-Pii; format: cell-based, mouse; settings: olanzapine 5 μM, 16 h, plus inhibitor
Protocol: Transfection was carried out using Lipofectamine 3000 (Thermo Fisher Scientific, Waltham, MA, USA), following the manufacturer’s instructions. The cells were incubated with the plasmid for 24 h to ensure successful transfection and plasmid expression and were used for experiments 48 h post-transfection.

Gas receptors = system: Gas receptors; parameters: method as in PMID 33152337; settings: acts as a suramin analog; cited from earlier work
ADSCs [2] = experiment: Vacuolization assay; format: cell-based, human; settings: 5 μM, 4 h
Protocol: After 4 h, pictures were acquired using a phase contrast microscope (DMi1, Leica, Wetzlar, Germany).

LC3B = experiment: Autophagy induction (LC3B Western blot, LAMP1/LC3B colocalization); format: cell-based, human; settings: 16 h treatment
Protocol: as §1, §2

ADSCs [3] = settings: 7 days; 1 to 50 μM
TFEB = TFEB nuclear localization (confocal microscopy); format: cell-based, human; settings: olanzapine 5 μM plus inhibitor
Protocol: as §2

ADSCs [4] = experiment: Phospholipidosis assay (LipidTox Green); settings: 5 μM, 16 h
Protocol: The cells were stained with 1X LipidTox Green (Thermo Fisher Scientific, Waltham, MA, USA) for 16 h to visualize lipid content. […] The cells were then washed with PBS and fixed with 4% paraformaldehyde for 15 min in the dark.

SMILES: C=C1C(=O)NC(C)C(=O)N(C)C(C)C(=O)NC(C(OC(=O)C(NC(C)=O)C(O)C(C)C)C(C)C)C(=O)N(C)C(C(C)OC)C(=O)OC(C)C(NC(C)=O)C(=O)OC(Cc2ccccc2)C(=O)N1C (centres unmarked) [YM254890] (Ac-T[PhLac][NMeDha]A[NMeA][X1][NMeT](Me); ester 1-C; configuration not given here)
effect of co-treatment on acidic vesicle accumulation in olanzapine-treated cells (ADSCs [1]; 16 h, plus inhibitor): strongest effect
reduction of olanzapine-induced accumulation of acidic vesicles (ADSCs [1]; 16 h): at least 50%
PKCζ phosphorylation in olanzapine-treated cells, co-treatment (PKCζ; olanzapine 5 μM, plus inhibitor): diminished
effect of co-treatment on PA levels in olanzapine-treated cells (3T3L1 cells): markedly reduced
concentrations blocking Gas receptors (Gas receptors): below 10 μM

SMILES: CN1CCN(C2=Nc3cc(Cl)ccc3Nc3ccccc32)CC1 [clozapine]
acidic compartment accumulation (Lysotracker staining) (ADSCs [1]; 0.5-10 µM, 24 h, 72 h, 7 days): progressive time- and dose-dependent increase
concentrations at which acidic compartment accumulation was observed (ADSCs [1]; ADSCs): below 1 µM
vacuolization induction (ADSCs [2]): absent
colocalization of LAMP1 with LC3B (LC3B): increased colocalization
conversion of LC3B-I to LC3B-II (LC3B): significantly increased
canonical PKCs (cPKCs) and atypical PKCζ activation state (PKCζ; 5 μM, Western blot): activation
concentrations showing significant toxicity (ADSCs [3]): above 25 μM

SMILES: Cn1cnc(N)c2ncnc1-2 [3-MA, 3-methyladenine]
effect of co-treatment on acidic vesicle accumulation in clozapine-treated cells (ADSCs [1]; 16 h, plus inhibitor): significantly reduced
effect of co-treatment on acidic vesicle accumulation in olanzapine-treated cells (ADSCs [1]; 16 h, plus inhibitor): not seen

SMILES: O=C(NCCN1CCC(n2c(=O)[nH]c3ccccc32)CC1)c1cc2cc(F)ccc2[nH]1 [FIPI]
effect of co-treatment on acidic vesicle accumulation in olanzapine-treated cells (ADSCs [1]; 16 h, plus inhibitor): significantly reduced
effect of co-treatment on PA levels in olanzapine-treated cells (3T3L1 cells): significantly reduced

SMILES: Nc1ncnc2c1ncn2C1CCCO1 (centres unmarked) [SQ22]
reduction of olanzapine-induced accumulation of acidic vesicles (ADSCs [1]; 16 h): at least 50%

SMILES: Cc1ccc(C(=O)Nc2ccc(S(=O)(=O)O)c3cc(S(=O)(=O)O)cc(S(=O)(=O)O)c23)cc1NC(=O)c1cccc(NC(=O)Nc2cccc(C(=O)Nc3cc(C(=O)Nc4ccc(S(=O)(=O)O)c5cc(S(=O)(=O)O)cc(S(=O)(=O)O)c45)ccc3C)c2)c1 [suramin]
reduction of olanzapine-induced accumulation of acidic vesicles (ADSCs [1]; 16 h): at least 50%

SMILES: CN1CCN(C(=O)C2C(C(=O)O)[C@H]3CC[C@@H]2O3)CC1 (some centres unmarked) [LB100]
effect of co-treatment on acidic vesicle accumulation in olanzapine-treated cells (ADSCs [1]; 16 h, plus inhibitor): significant reduction
effect of co-treatment on TFEB nuclear localization induced by olanzapine (TFEB): complete abrogation

SMILES: CC1CCc2c(cc(Br)c(F)c2Br)N1C=O (centres unmarked) [CE3F4]
reduction of olanzapine-induced accumulation of acidic vesicles (ADSCs [1]; 16 h): at least 50%
effect of co-treatment on PA levels in olanzapine-treated cells (3T3L1 cells): markedly reduced

vacuolization induction (ADSCs [2]): prominently observed
SMILES: CNCCC(Oc1ccc(C(F)(F)F)cc1)c1ccccc1 (centres unmarked) [fluoxetine]
phospholipidosis induction (ADSCs [4]): prominently observed

vacuolization induction (ADSCs [2]): prominently observed
SMILES: CC(C)(C)c1ccc(C(=O)CCCN2CCC(OC(c3ccccc3)c3ccccc3)CC2)cc1 [ebastine]

SMILES: CN(C)CCCn1cc(C2=C(c3c[nH]c4ccccc34)C(=O)NC2=O)c2ccccc21 [Go6850]
effect of co-treatment on acidic vesicle accumulation in clozapine-treated cells (ADSCs [1]; 16 h, plus inhibitor): only partially reduced

SMILES: Cc1nc2sccn2c(=O)c1CCN1CCC(=C(c2ccccc2)c2ccc(F)cc2)CC1 [R59022]
effect of co-treatment on acidic vesicle accumulation in olanzapine-treated cells (ADSCs [1]; 16 h, plus inhibitor): did not affect
effect of co-treatment on PA levels in olanzapine-treated cells (3T3L1 cells): did not affect

SMILES: C[C@@H]1C[C@@H]([C@H](O)CC2CC(=O)NC(=O)C2)C(=O)[C@@H](C)C1 [CHX, cycloheximide]
effect of co-treatment on acidic vesicle accumulation (Lysotracker) in both olanzapine- and clozapine-treated cells (ADSCs [1]; SGAs 5 µM, 16 h, plus inhibitor): significant reduction
